Source: ChEMBL document CHEMBL1201862, “PubChem BioAssay data set” (2004)
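Following 48 hours of exposure in 96-well plates, responses at five concentrations were used to interpolate endpoints linearly. GI50 is the concentration that inhibits growth by half.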 Activity calls are given as the source filed them. No stated cut-off is given here; in the data, active = GI50 up to about 1.1 µM and inactive = higher. Where a SMILES comes first, the peptide text is derived from it. The star is where a group is joined. Cbz = O=C(OCc1ccccc1)*

Assays:
Assay in all cases: inhibition of tumour cell growth, NCI panel, 48 h
[1] = system: OVCAR-8
[2] = system: M14
[3] = system: ACHN
[4] = system: COLO 205
[5] = system: MOLT-4
[6] = system: IGROV-1
[7] = system: Malme-3M
[8] = system: SK-MEL-28
[9] = system: NCI-H460
[10] = system: KM12
[11] = system: NCI-H23
[12] = system: DU-145
[13] = system: NCI/ADR-RES
[14] = system: SNB-19
[15] = system: SF-539
[16] = system: OVCAR-3
[17] = system: RPMI-8226
[18] = system: HOP-92
[19] = system: NCI-H522

| Compound | GI50 [1] | GI50 [2] | GI50 [3] | GI50 [4] | GI50 [5] | GI50 [6] | GI50 [7] | GI50 [8] | GI50 [9] | GI50 [10] | GI50 [11] | GI50 [12] | GI50 [13] | GI50 [14] | GI50 [15] | GI50 [16] | GI50 [17] | GI50 [18] | GI50 [19] |
| --- | --- | --- | --- | --- | --- | --- | --- | --- | --- | --- | --- | --- | --- | --- | --- | --- | --- | --- | --- |
| Nc1nc(NNc2cccc(F)c2)cc(=O)[nH]1 | 42.4 µM (inactive) | 56.5 µM (inactive) | 43.6 µM (inactive) | 23.3 µM (inactive) | 27.7 µM (inactive) | 61.9 µM (inactive) | 74.8 µM (inactive) | > 100 µM (inactive) | 44 µM (inactive) | 22.4 µM (inactive) | 48.3 µM (inactive) | 81.3 µM (inactive) | 44.9 µM (inactive) | 65.2 µM (inactive) | > 100 µM (inactive) | 24.9 µM (inactive) | 32.2 µM (inactive) |  |  |
| Cc1ccc(/C=C2\NC(=S)N(CN3CCCCC3)C2=O)cc1 | 32.5 µM (inactive) | 55.1 µM (inactive) | 43.2 µM (inactive) | 17 µM (inactive) | 93.3 µM (inactive) | > 100 µM (inactive) | 85.3 µM (inactive) | 79.3 µM (inactive) |  | > 100 µM (inactive) | > 100 µM (inactive) | 36.1 µM (inactive) | 57.7 µM (inactive) | 55.5 µM (inactive) |  | 65.3 µM (inactive) | 32.2 µM (inactive) | 0.416 µM (active) | 35.8 µM (inactive) |
| CCOC(=O)CCC(NC(=O)CNC(=O)CNC(=O)C(CCC(=O)OCC)NC(=O)C(CCC(=O)OCC)NC(=O)C(CCC(=O)OCC)NC(=O)OCc1ccccc1)C(=O)NC(CCC(=O)OCC)C(=O)NC(CCC(=O)OCC)C(=O)OCC (stereo not drawn) (Cbz-E(OEt)E(OEt)E(OEt)GGE(OEt)E(OEt)E(OEt)-OEt; configuration not given here) | > 75 µM (inactive) | > 75 µM (inactive) | > 75 µM (inactive) | > 75 µM (inactive) | > 75 µM (inactive) | > 75 µM (inactive) | > 75 µM (inactive) | > 75 µM (inactive) | > 75 µM (inactive) | > 75 µM (inactive) | > 75 µM (inactive) | > 75 µM (inactive) | > 75 µM (inactive) | > 75 µM (inactive) |  |  | > 75 µM (inactive) |  | > 75 µM (inactive) |
| Cc1[nH]c(-c2ccccc2)c(-c2ccc(Cl)cc2)c1C(=O)ONC(=O)c1ccccc1 | 4 µM (inactive) | 4.55 µM (inactive) | 1.77 µM (inactive) | 5.93 µM (inactive) | 2.69 µM (inactive) | 1.16 µM (inactive) | 10.2 µM (inactive) | 8.38 µM (inactive) | 2.11 µM (inactive) | 7.24 µM (inactive) | 4.02 µM (inactive) | 1.58 µM (inactive) | 3.23 µM (inactive) | 4.86 µM (inactive) | 2.22 µM (inactive) | 3.2 µM (inactive) | 3.02 µM (inactive) | 1.77 µM (inactive) | 2.1 µM (inactive) |
| CCCc1cc(=O)oc2c3c(c4c(c12)OC(C)(C)C=C4)O[C@@H](C)[C@H](C)C3=O | 17.1 µM (inactive) |  | 12.4 µM (inactive) | 18.6 µM (inactive) | 6.61 µM (inactive) | 12.9 µM (inactive) | 19.5 µM (inactive) | 13 µM (inactive) | 15.8 µM (inactive) | 13.6 µM (inactive) | 17 µM (inactive) | 19.5 µM (inactive) | 12.5 µM (inactive) | 17.8 µM (inactive) | 17.7 µM (inactive) | 17.2 µM (inactive) | 3.83 µM (inactive) |  | 13.6 µM (inactive) |
| CC(C)(C)c1cc(/C=C/C(=O)CC(=O)/C=C/c2cc(C(C)(C)C)c(O)c(C(C)(C)C)c2)cc(C(C)(C)C)c1O | > 50 µM (inactive) | > 50 µM (inactive) | > 50 µM (inactive) | > 50 µM (inactive) |  | > 50 µM (inactive) |  | > 50 µM (inactive) | > 50 µM (inactive) | 28.4 µM (inactive) | > 50 µM (inactive) | > 50 µM (inactive) | > 50 µM (inactive) | > 50 µM (inactive) | > 50 µM (inactive) | > 50 µM (inactive) | > 50 µM (inactive) |  | > 50 µM (inactive) |
| CCOC(=O)[C@@H]1OC(c2ccccc2)O[C@H]1C(=O)OCC | > 100 µM (inactive) | > 100 µM (inactive) | > 100 µM (inactive) | > 100 µM (inactive) | > 100 µM (inactive) | > 100 µM (inactive) | > 100 µM (inactive) | > 100 µM (inactive) |  | > 100 µM (inactive) | > 100 µM (inactive) | > 100 µM (inactive) | > 100 µM (inactive) | > 100 µM (inactive) |  | > 100 µM (inactive) | > 100 µM (inactive) | > 100 µM (inactive) |  |
| NC(=O)Nc1c(Cl)cc(S(N)(=O)=O)cc1Cl | > 100 µM (inactive) | > 100 µM (inactive) |  | > 100 µM (inactive) | > 100 µM (inactive) | > 100 µM (inactive) | > 100 µM (inactive) | > 100 µM (inactive) |  | > 100 µM (inactive) | > 100 µM (inactive) | > 100 µM (inactive) | > 100 µM (inactive) | > 100 µM (inactive) | > 100 µM (inactive) | > 100 µM (inactive) | > 100 µM (inactive) | > 100 µM (inactive) | > 100 µM (inactive) |
| CCc1cccc(CC)c1NC(=O)C1=C(C)NC(C)=C(C(=O)Nc2c(CC)cccc2CC)C1c1ccc([N+](=O)[O-])cc1 | 20.4 µM (inactive) | 17.5 µM (inactive) | 27.4 µM (inactive) | 18 µM (inactive) | 14.7 µM (inactive) | 14.4 µM (inactive) | 17.3 µM (inactive) | 17.4 µM (inactive) | 17.5 µM (inactive) | 18 µM (inactive) | 22.8 µM (inactive) |  |  | 54.5 µM (inactive) | 16.2 µM (inactive) | 32.1 µM (inactive) | 11.4 µM (inactive) | 10.3 µM (inactive) | 13.3 µM (inactive) |
| CCCCOC(=O)C1C2CCC(O2)C1C(=O)OCCCC (stereo not drawn) | > 100 µM (inactive) | > 52.1 µM (inactive) | > 100 µM (inactive) | > 42.5 µM (inactive) | > 83.4 µM (inactive) | > 100 µM (inactive) | > 100 µM (inactive) | > 96.8 µM (inactive) | 4.17 µM (inactive) | > 100 µM (inactive) | > 100 µM (inactive) |  |  | > 100 µM (inactive) | > 76.6 µM (inactive) | > 100 µM (inactive) | > 49.9 µM (inactive) | > 100 µM (inactive) | > 100 µM (inactive) |
| COc1ccc(C2C3=C(COC3=O)Oc3cc4c(cc32)OCO4)c(OC)c1 (stereo not drawn) | 44.4 µM (inactive) | 15 µM (inactive) | 19.9 µM (inactive) | 7 µM (inactive) | 4.28 µM (inactive) | 12.9 µM (inactive) | 14.9 µM (inactive) | 23 µM (inactive) | 17.4 µM (inactive) | 5.19 µM (inactive) | 19 µM (inactive) | 26.3 µM (inactive) | 10 µM (inactive) | 37.8 µM (inactive) | 12.6 µM (inactive) | 5.52 µM (inactive) | 7.74 µM (inactive) |  |  |
| O=c1c2cc(S(=O)(=O)Nc3ccc(Cl)cc3Cl)ccc2ncn1NS(=O)(=O)c1cccc2ccccc12 | 52.2 µM (inactive) | 93.8 µM (inactive) | 47.5 µM (inactive) | 43.7 µM (inactive) | 18.2 µM (inactive) | 20.7 µM (inactive) | > 100 µM (inactive) | 99.5 µM (inactive) | 36.6 µM (inactive) | 22.4 µM (inactive) | 40.4 µM (inactive) | 36.5 µM (inactive) | 31.3 µM (inactive) | 21.6 µM (inactive) | 38.3 µM (inactive) | 33.9 µM (inactive) | 21.1 µM (inactive) | 16.2 µM (inactive) | 24 µM (inactive) |
| C[C@]12CCc3nonc3C1CC[C@@H]1C2CC[C@]2(C)C(=O)/C(=N\O)CC12 (stereo partly drawn) | > 100 µM (inactive) | > 100 µM (inactive) | > 100 µM (inactive) | 54.3 µM (inactive) | > 100 µM (inactive) | > 100 µM (inactive) | > 100 µM (inactive) | > 100 µM (inactive) | > 100 µM (inactive) | > 100 µM (inactive) | > 100 µM (inactive) |  |  | > 100 µM (inactive) | > 100 µM (inactive) | > 100 µM (inactive) | > 100 µM (inactive) | > 100 µM (inactive) | 4.66 µM (inactive) |
| CCCNC(=O)Nc1ccc2c(c1)Cc1cc(N(CCCl)CCCl)ccc1-2 | 26.9 µM (inactive) | 79.4 µM (inactive) | 5.47 µM (inactive) | 8.32 µM (inactive) |  | 14.1 µM (inactive) | 36 µM (inactive) | 11.5 µM (inactive) | 7.16 µM (inactive) | 22 µM (inactive) | 36.1 µM (inactive) | 14.6 µM (inactive) | 36.2 µM (inactive) | 19.2 µM (inactive) | 5.53 µM (inactive) | 22.1 µM (inactive) | 25.4 µM (inactive) | 25.2 µM (inactive) | 17.6 µM (inactive) |
| O=S(=O)(Sc1ccc(Cl)cc1)c1ccc(Cl)cc1 | 16.1 µM (inactive) | 17.5 µM (inactive) | 16.1 µM (inactive) | 17.7 µM (inactive) | 9.79 µM (inactive) | 16.8 µM (inactive) | 17.5 µM (inactive) | 16.5 µM (inactive) | 17.1 µM (inactive) | 14.7 µM (inactive) | 16 µM (inactive) |  |  | 19.3 µM (inactive) | 14.6 µM (inactive) | 15.5 µM (inactive) | 22.6 µM (inactive) | 20.1 µM (inactive) | 17.1 µM (inactive) |
| N#Cc1nc(C(=O)c2ccccc2)oc1N | > 100 µM (inactive) | > 100 µM (inactive) | > 100 µM (inactive) |  | > 100 µM (inactive) | 64.9 µM (inactive) |  | > 100 µM (inactive) |  | > 100 µM (inactive) |  | > 100 µM (inactive) |  | > 100 µM (inactive) |  |  | > 100 µM (inactive) | > 100 µM (inactive) |  |
